The record followed here is patent publication US20070178161A1, “Use of n-acetryl-d-glucosamine in treating and controlling non-specific inflammations caused by physical or chemical factors” (priority 2003, published 2007).

One data set deals with burn models. The data set is described as follows: Burn test. The following applies: local application of solid powder, after 3 days, 10 rats per group (control: 2). It is filed as in vivo, Wistar rats. The text has this: 20 Wistar rats were randomly divided into two groups, i.e., control group and test group. The rats of both two groups were made as burn models by dressing gauze with hot distilled water. The rats of the control group were not treated, while the rats of the test group were locally treated by applying a solid powder of the compound of formula (I). After 3 days, 8 rats of the test group formed scab, while only 2 rats of the control group formed scab wherein liquor puris still accumulated below the scab.

The subject of data set [1] is blunt torn thigh muscle tissue of hind limb. The experiment in a line: Blunt tearing tests of animals. It is filed as in vivo, Kunming mice. The following applies: 1 ml, after 7 days. As for the experimental part: 30 Kunming mice were randomly divided into two groups, i.e., 10 mice in control group and 20 mice in test group. The mice of both two groups were treated by a blunt tearing method, wherein a non-specific injury occurred in blunt torn thigh muscle tissue of hind limb of mice. […] 10 mice of control group were normally fed, while the mice of test group were administered with an aqueous solution of N-acetyl-D-glucosamine having a concentration of 5% by weight in a dosage of 1 ml, wherein 10 mice were administered by intra-peritoneal injection, another 10 mice were administered by intramuscular injection. […] The pathological changes of the mice of control group continuously developed or maintained on the original basis, wherein 4 mice suffered paralysis of the injured limb, and another 4 mice had flex and stretch dysfunction.

For data set [2], the system named is patients with surgical trauma. The experiment in a line: Test for treatment of surgical trauma. It is filed as in vivo. The following applies: ointment 1 g/10 g in Vaseline, painted on wounds for 3 consecutive days, 8 patients. On the procedure:
8 Patients with surgical trauma, and most of them were facial and forearm abrasion. An ointment with a concentration of 1 g/10 g was prepared by mixing N-acetyl-D-glucosamine and Vaseline, and was painted on wounded parts in a dose dependent upon the area of wound surface for consecutive 3 days.

For data set [3], the system named is burned voluntary patients. The experiment in a line: Test for treatment of burn. The following applies: sterilized powder on wound surface for 3 consecutive days, 10 patients. The format is in vivo. From the text: In a collaborate project of the bum department of Third Military Medical University, a sterilized N-acetyl-D-glucosamine powder in a dose dependant upon wound surface area was applied to the wound surface of 10 burned voluntary patients for consecutive 3 days.

The conditions of data set [4]: in vivo. The text has this:
The toxicological test of the compound of formula (I) includes: • 1. Acute toxicity test: including tests of oral administration, intravenous injection administration, and maximum limit amount for administration; • 2. Ames test; • 3. Micronucleus test of mouse bone marrow cell; • 4. Abnormality test of mouse sperm; • 5. Aberration test of mouse testis chromosome; • 6. Chronic lethal test; • 7. Sub-chronic toxicity (feed for 90 days) test; • 8. Traditional deformity-inducing test.

The subject of another data set is Proteus Mirabilis. The data set is described as follows: Promoting wave test (bio-wave model). It is filed as cell-based. The following applies: final concentration 0.5% in LB plate, 37° C., 9 hours.
For data set [5], the system named is patients with cold injury. The experiment in a line: Test for treatment of cold injury. It is filed as in vivo. The following applies: 10 wt % aqueous solution, local, 1 ml to 10 ml per day. As for the experimental part:
20 Patients with different levels of cold injury were divided into a test group and a control group. The patients in the test group were locally treated with a 10 wt % N-acetyl-D-glucosamine aqueous solution in a dose from 1 ml to 10 ml per day according to symptoms and individual conditions.

[6] abbreviates: 5% aqueous solution, i.p. or i.m., 20 mice in test group (control: 4 of 10).

Consider `CC(=O)N[C@H]1C(O)O[C@H](CO)[C@@H](O)[C@@H]1O.Cl` (stereo partly drawn) [N-acetyl-D-glucosamine hydrochloride], for which the “rats of the test group that formed scab” value in the data set on burn models was 6.

Turning to `CC(=O)N[C@H]1C(O)O[C@H](CO)[C@@H](O)[C@@H]1O.O=S(=O)(O)O` (stereo partly drawn) [N-acetyl-D-glucosamine sulfate], in data set [1] (setting [6]), the “mice that suffered paralysis of the injured limb” value is given as 2; the “mice with flex and stretch dysfunction” value came to 2.

Take `CC(=O)N[C@H]1C(O)O[C@H](CO)[C@@H](O)[C@@H]1O` (stereo partly drawn) [compound of formula (I), N-acetyl-D-glucosamine]: in the data set with burn models, the “rats of the test group that formed scab” value was determined as 8. Further, in data set [2], the “healing of facial abrasion” value is reported as “rapidly healed” and the scar formation entry is given as “no scar was found on face”. The “wound symptoms (edema, blood vessels, secretion)” value in data set [3] was “edema was alleviated, blood vessel shrank, and secretion was reduced”. Besides, the “rate of cambium growth toward the center of the wound” value in data set [3] (from the 4th day) is on record as 1-2 mm per day. For the same compound, in data set [4], the “dosage at which acute toxicosis reaction had not appeared” value is listed as “more than 2 g/kg”. For the same compound, the “mice that suffered paralysis of the injured limb” value in data set [1] (setting [6]) is recorded as “one”. For the same compound, in data set [1] (5% by weight aqueous solution, intra-peritoneal or intramuscular injection, 20 mice), the “movement of injured limb / mobility of test group” value is “could free-run”. In addition, the “bio-wave pattern of colony (concentric rings)” value in the data set on Proteus Mirabilis is listed as “many fine waves on each ring”. The “recovery from cold injury” value in data set [5] is “early recovery, and then inflammation and edema were eliminated”.
